pIC50: −log10 of the molar value. Structures can show the parent of a compound that is named as a salt.
Molecular target: T1, human P2Y12 receptor (Homo sapiens, UniProt Q9H244)
T1 construct: expressed in transfected cells; host or cells: Chinese Hamster Ovary (CHO) cells
Experiment: P2Y12 receptor binding assay
Settings: CHO cells with recombinant expression of the human P2Y12 receptor; tritium-labeled 2-methyl-S-ADP; 2 hours at room temperature
Protocol: Chinese Hamster Ovary (CHO) cells with recombinant expression of the human P2Y12 receptor were cultured in 24 well cell-culture plates. Cells were washed three times with binding buffer (50 mM Tris pH 7.4, 100 mM NaCl, 1 mM EDTA, 0.5% BSA). The cells were then incubated with 0.5 ml per well binding buffer containing tritium-labeled 2-methyl-thio-adenosine 5′-diphosphate (2-methyl-S-ADP) (between 100'000 and 300'000 dpm per well) and various concentrations of test compounds. After incubation at room temperature for 2 hours, cells were washed three times with binding buffer. Then, cells were solubilized by addition of 0.5 ml solubilization buffer (SDS, NaOH, EDTA). The content of each well was then transferred into beta-counter vials and 2.0 ml of Ultima Gold Scintillation liquid was added.

T1 sequence (Q9H244 whole entry): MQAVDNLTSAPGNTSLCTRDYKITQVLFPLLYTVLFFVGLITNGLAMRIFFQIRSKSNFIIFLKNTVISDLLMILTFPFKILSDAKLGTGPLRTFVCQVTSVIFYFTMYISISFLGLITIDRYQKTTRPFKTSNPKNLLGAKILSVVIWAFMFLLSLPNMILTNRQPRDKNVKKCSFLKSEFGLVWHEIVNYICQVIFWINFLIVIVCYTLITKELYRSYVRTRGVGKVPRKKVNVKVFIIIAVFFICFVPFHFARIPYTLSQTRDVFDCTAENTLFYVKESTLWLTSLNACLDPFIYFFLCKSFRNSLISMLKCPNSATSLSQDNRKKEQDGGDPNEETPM

Compound | pIC50
CCOC(=O)N1CCN(C(=O)[C@H](CCC(=O)O)NC(=O)c2cc(OCCOCCOC)nc(-c3ccccc3)n2)CC1 [Example 1, 4-[(S)-4-carboxy-2-({6-[2-(2-methoxy-ethoxy)-ethoxy]-2-phenyl-pyrimidine-4-carbonyl}-amino)-butyryl]-piperazine-1-carboxylic acid ethyl ester] | 6.97
CCOC(=O)N1CCN(C(=O)[C@H](CCC(=O)O)NC(=O)c2cc(OC3CCCN(C)C3)nc(-c3ccccc3)n2)CC1 (stereo partly drawn) [Example 6, 4-((S)-4-carboxy-2-{[6-(1-methyl-piperidin-3-yloxy)-2-phenyl-pyrimidine-4-carbonyl]-amino}-butyryl)-piperazine-1-carboxylic acid ethyl ester trifluoroacetate salt] | 6.62
CCOC(=O)N1CCN(C(=O)[C@H](CCC(=O)O)NC(=O)c2cc(OC3CCOC3)nc(-c3ccccc3)n2)C(C)C1 (stereo partly drawn) [Example 10, ((S)-4-carboxy-2-{[2-phenyl-6-(tetrahydro-furan-3-yloxy)-pyrimidine-4-carbonyl]-amino}-butyryl)-3-methyl-piperazine-1-carboxylic acid ethyl ester] | 6.90
CCOC(=O)N1CCN(C(=O)[C@H](CCc2nnn[nH]2)NC(=O)c2cc(OC3CCOC3)nc(-c3ccccc3)n2)CC1 (stereo partly drawn) [Example 17, 4-[(S)-2-{[2-phenyl-6-(tetrahydro-furan-3-yloxy)-pyrimidine-4-carbonyl]-amino}-4-(1H-tetrazol-5-yl)-butyryl]-piperazine-1-carboxylic acid ethyl ester] | 7.03
CCCCOC(=O)N1CCN(C(=O)[C@H](CCC(=O)OC(C)(C)C)NC(=O)c2cc(O[C@@H]3CCOC3)nc(-c3ccccc3)n2)CC1 [Example 36, 4-[(S)-4-tert-butoxycarbonyl-2-({2-phenyl-6-[(R)-(tetrahydro-furan-3-yl)oxy]-pyrimidine-4-carbonyl}-amino)-butyryl]-piperazine-1-carboxylic acid butyl ester] | 6.35
CCCCOC(=O)N1CCN(C(=O)[C@H](CCC(=O)O)NC(=O)c2cc(OC3CCNCC3)nc(-c3ccccc3)n2)CC1 [Example 37, 4-((S)-4-carboxy-2-{[2-phenyl-6-(piperidin-4-yloxy)-pyrimidine-4-carbonyl]-amino}-butyryl)-piperazine-1-carboxylic acid butyl ester] | 7.15
CCCCOC(=O)N1CCN(C(=O)[C@H](CCC(=O)OC(C)(C)C)NC(=O)c2cc(OC3CCNCC3)nc(-c3ccccc3)n2)CC1 [Example 38, 4-((S)-4-tert-butoxycarbonyl-2-{[2-phenyl-6-(piperidin-4-yloxy)-pyrimidine-4-carbonyl]-amino}-butyryl)-piperazine-1-carboxylic acid butyl ester] | 4.89

— patent US8044055B2, “2-phenyl-6-aminocarbonyl-pyrimidine derivatives and their use as P2Y12 receptor” (Actelion Pharmaceuticals Ltd., priority 2006, dated 2011)
